Source: patent US20090074761A1, “Therapeutic beta-glucan combinations” (priority 2007, published 2009)

Assays:
SKOV-3 cells = format: cell-based, human
Experimental: As described above, β-glucan functions with anti-tumor antibodies to activate complement receptor 3 (CR3) and recruit neutrophils that mediate CR3 (iC3b-receptor)-dependent cytotoxicity of tumors coated with iC3b. […] SKOV-3 cells were incubated with anti-VEGF mAb or anti-Her-2/neu mAb in the presence of human complement. Cells were then washed and co-cultured with human neutrophils (E:T ratio=20:1) in the presence of soluble β-glucan. Cytotoxicity was calculated as in Li et al., J Immunol 177:1661-1669.

SKOV-3 tumors [1] = assay: SKOV-3 xenograft model in ICR SCID mice (FIG. 4A, 4B); format: in vivo, mouse
Source text: (§1) Additional evidence was gathered to show efficacy of in vivo therapy. ICR SCID mice implanted with SKOV-3 cells were compared to ICR SCID mice implanted with Colo38 cells as a control. […] Most of these tumors still retained their sizes before therapy. More importantly, 86% of these mice achieved long-term survival compared with 43% of tumor-bearing mice treated with anti-VEGF mAb only (FIG. 4B).

Colo38 tumors = assay: Colo38 xenograft model in ICR SCID mice (FIG. 4C); format: in vivo, mouse; conditions: Colo38 xenograft (membrane-bound VEGF negative)
Source text: as §1

[2] = tested on: MDA-MB-483, HBL-100, Colo38 cells; assay: complement activation (iC3b deposition), flow cytometry, cell lines negative for membrane-bound VEGF; format: cell-based, human; conditions: tumor cell lines negative for membrane-bound VEGF, mouse serum as complement source
Experimental: Next, the ability of anti-VEGF mAb to bind surface-bound VEGF and activate complement, which leads to iC3b deposition, was examined. SKOV-3 cells were mixed with anti-VEGF mAb in the presence of a 1:4 dilution of mouse serum (complement source). For every one million tumor cells, a 100 μL volume of diluted mouse serum containing 10 μg/mL working dilution of anti-VEGF mAb was used. Tumor cells were mixed and incubated at 37° C. for 30 min. The cells were washed in ice cold flow cytometry staining buffer and the cell pellet was resuspended in […] diluted detecting antibody. The cells were incubated on ice for 30 min. and washed twice. Propidium iodide was used to exclude dead cells. The results of cell lines MDA-MB-483, HBL-100, SKOV-3 and Colo38 are shown in histograms 26, 28, 30 and 32 of FIG. 1C, respectively. Cells incubated with anti-VEGF mAb in the presence of complement and stained with anti-mouse iC3b-FITC mAb are represented by bold lines. Controls included cells incubated with mouse complement (dotted line) or without mouse complement (filled gray) and then stained with anti-mouse iC3b-FITC mAb.

SKOV-3 tumors [3] = assay: SKOV-3 xenograft in ICR SCID mice, i.v. therapy for 4 weeks (FIG. 3); format: in vivo, mouse; conditions: 1.2 mg β-glucan twice weekly, 0.2 mg bevacizumab every third day, i.v. 4 weeks; start 300 mm^3
Source text: After SKOV-3 cell s.c. implantation, tumors were allowed to grow for over 17 days until they were 300 mm^3. […] Mice were sacrificed when the tumors reached 15 mm in diameter.

SKOV-3 tumors [4] = assay: immunohistochemistry of tumor sections: iC3b deposition and neutrophil infiltration (FIG. 5); format: in vivo, mouse; conditions: for neutrophil infiltration in tumors: anti-Gr-1-PE staining of tumor sections; for iC3b deposition in tumors: anti-iC3b-FITC staining of tumor sections
Source text: Interaction between the complement activation product iC3b and the I-domain of CR3 provides the first signal for CR3 priming. Engagement of β-glucan with the lectin-like domain of CR3 is additionally required for the full activation of CR3. The dual ligation of CR3 leads to neutrophil CR3-dependent cellular cytotoxicity (Li et al., J Immunol 177:1661-1669). Neutrophil trafficking within tumors is also critical for successful combined β-glucan with anti-tumor mAb therapy (Allendorf et al., J Immunol 174:7050-7056). Therefore, immunohistochemistry studies were carried out to examine complement activation and neutrophil infiltration within tumors after treatment with different regimens.
First, the tumor sections from four groups were stained with an anti-iC3b-FITC and anti-VEGF-PE mAbs. […] Second, the tumor sections were stained with anti-Gr-1-PE mAb to detect neutrophil infiltration.

SKOV-3 tumors [5] = assay: tumor blood vessel development, anti-CD31 staining of tumor sections (FIG. 6); format: in vivo, mouse; conditions: anti-CD31-biotin staining, compared to PBS or β-glucan alone
Source text: To observe tumor blood vessel development after anti-VEGF mAb therapy, the tumor sections were stained with anti-CD31-biotin mAb.

| Substance | cytotoxicity (SKOV-3 cells) | mice achieving long-term survival (SKOV-3 tumors [1]) | tumor burden (SKOV-3 tumors [1]) | tumor burden (Colo38 tumors) | complement activation (iC3b deposition) [2] | tumor size reached (SKOV-3 tumors [3]) | neutrophil infiltration in tumors (SKOV-3 tumors [4]) | iC3b deposition in tumors (SKOV-3 tumors [4]) | tumor microvessel density (SKOV-3 tumors [5]) |
| --- | --- | --- | --- | --- | --- | --- | --- | --- | --- |
| bevacizumab | 0.2% | 43% | significantly reduced tumor burden | significantly reduced tumor burden | negative for complement activation | 800±250 mm^3 | significant neutrophil infiltration | massive iC3b deposition | decreased tumor microvessel density |
| poly-(1-6)-β-D-glucopyranosyl-(1-3)-β-D-glucopyranose [β-glucan] | – | – | did not show any significant tumor regression | – | – | 1500±500 mm^3 | paucity of iC3b deposition and neutrophil infiltration | no iC3b deposition | – |
